Data set [1] can be described thus: Pharmacokinetics after a single gavage administration. The note with it: SD rats, single gavage 1.2 mg/kg, plasma, DAS 2.0, mean ± SD, n = 6. Type of data set: in vivo. An excerpt: Six 8-week-old male SD rats with weight between 180 to 220 g were purchased from the Laboratory Animal Center of Sichuan University (Sichuan University, Chengdu, Sichuan, China). The animals were maintained under 12-hour dark and light cycles at 22℃ and free access to food and water. After a week of adaptation, these SD rats were admitted to experiments. Absorption of YF4 in SD rats following a single oral administration of YF4 was investigated. At the end of the experiment, the rats were sacrificed inside an isoflurane chamber to avoid unnecessary suffering. The experiments were approved and supervised by the State Key Laboratory of Biotherapy Animal Care and Use Committee (Sichuan University, Chengdu, Sichuan, China).
SD rats were used to investigate the […] of YF4. Rats were chosed randomly for oral administration of free YF4 at the dose of 1.2 mg/kg (n=6), respectively. Before the experiment, all rats were fasted for 12 h with free access to water. Each rat was administered an oral volume of 0.5 mL/100 g. Approximate 200 μL of blood samples were collected from the orbit into a heparin zed centrifuge tube before and at 0.083, 0.25, 0.5, 0.75, 1, 1.5, 2, 3, 4, 6, 8, 12 h post-dosing. All blood samples were centrifuged at 3500 rpm (4 ℃) for 10 min. The plasma samples were collected and stored at -20 ℃ until analyzed by Drug and Statistics 2.0 (DAS 2.0) (Mathematical Pharmacology Professional Committee of China, Shanghai, China).

The test system of data set [2] is spontaneously hypertensive rats (SHRs). The data set is described as follows: In vivo antihypertensive efficacy, tail-cuff blood pressure. The arrangement: species or system rat. The note with it: single oral dose 5 mg/kg, 2 h after administration, n = 6.
Source text: Twelve weeks old male spontaneously hypertensive rats (SHRs) with a circa weight between 250 and 320 g were purchased from Beijing Vital River Laboratory Animal Technology Co., Ltd. After a week of adaption, animals were admitted to experiments (six per group). […] The rats were free access to food and water. […] In this study, groups of rats were used for the oral administration of saline group, Captopril group vs. YF4 group, YF4 vs. YF4-NPs vs YF4-LNPs.
Simultaneously, the captopril and the saline water were used as the positive control and control group, respectively. SHRs were randomly divided into three groups (n = 6). Control group were treated with 0.9% saline water, and the other groups were treated with captopril (5 mg/kg) or the same dose of YF4 dissolved in saline water. All rats were administered at a single oral dose.
In YF4-LNPs pharmacodynamics study, the SHRs were randomly divided into three groups (n = 6). Control group were treated with 0.9% saline water, the other groups of SHRs were treated withYF4 and YF4-LNPs. All the groups of rats were given the same dose at 0.8 mg/kg body weight. Blood pressure was indirectly recorded as described above. […] All the SBP were measured for three times to get the average value at each time point.

In general, Cmax refers to the maximum level reached in the sampled fluid or tissue. As a reminder, the AUC(0-inf) is the area under the concentration-time curve extrapolated to infinity. The low end stands for low exposure, the high end for high exposure. What is called MRT is the average time that molecules of a dose stay in the body.

The structures appear in SMILES notation. Residues, ends and D or L forms follow the SMILES beside them.

As for `CC(C)C[C@H](NC(=O)CNC(=O)[C@@H](N)Cc1ccc(O)cc1)C(=O)N[C@@H](Cc1ccccc1)C(=O)O` [YF4, Tyr-Gly-Leu-Phe] (H-YGLF-OH), in data set [1], the Cmax is 15470 ± 3050 ng/mL. Also, the AUC(0-inf) in data set [1] (male, rat, po) stood at 45400 ± 9420 ng·h/mL. Further, the CL/F in data set [1] (male, rat, po, read-out: CLz/F (converted)) is 0.333 mL/min/kg. Moreover, the MRT in data set [1] (male, rat, po, read-out: MRT(0-t)) worked out at 3.17 ± 0.68 h. For the same compound, the half-life in data set [1] (male, rat, po, read-out: T1/2z (half-life) (converted)) is 2.91 ± 0.05 h.

For the compound `C[C@H](CS)C(=O)N1CCC[C@H]1C(=O)O` [captopril], in data set [2], the “blood pressure lowing (BPL) effect compared with saline group” value was 23.0 mmHg.

Source of the values: PMC6401629, “Lipid Nanoparticles-Encapsulated YF4: A Potential Therapeutic Oral Peptide Delivery System for Hypertension Treatment” (Frontiers in Pharmacology, 2019).
